Measurements reported in ChEMBL document CHEMBL4219077, “Methyllucidone inhibits STAT3 activity by regulating the expression of the protein tyrosine phosphatase MEG2 in DU145 prostate carcinoma cells” (Bioorg Med Chem Lett, 2018).
Activity calls are given as the source filed them. The rule behind the calls is not given here.

Tests used:
[1] = biological target: Signal transducer and activator of transcription 3 (Homo sapiens) (UniProt P40763); experiment: Inhibition of STAT3 phosphorylation at Tyr-705 residue in human DU145 cells harboring SHP2 siRNA at 10 uM after 12 hrs by Western blot method; type: cell-based
Sequence of Signal transducer and activator of transcription 3 (Homo sapiens) (P40763 whole entry): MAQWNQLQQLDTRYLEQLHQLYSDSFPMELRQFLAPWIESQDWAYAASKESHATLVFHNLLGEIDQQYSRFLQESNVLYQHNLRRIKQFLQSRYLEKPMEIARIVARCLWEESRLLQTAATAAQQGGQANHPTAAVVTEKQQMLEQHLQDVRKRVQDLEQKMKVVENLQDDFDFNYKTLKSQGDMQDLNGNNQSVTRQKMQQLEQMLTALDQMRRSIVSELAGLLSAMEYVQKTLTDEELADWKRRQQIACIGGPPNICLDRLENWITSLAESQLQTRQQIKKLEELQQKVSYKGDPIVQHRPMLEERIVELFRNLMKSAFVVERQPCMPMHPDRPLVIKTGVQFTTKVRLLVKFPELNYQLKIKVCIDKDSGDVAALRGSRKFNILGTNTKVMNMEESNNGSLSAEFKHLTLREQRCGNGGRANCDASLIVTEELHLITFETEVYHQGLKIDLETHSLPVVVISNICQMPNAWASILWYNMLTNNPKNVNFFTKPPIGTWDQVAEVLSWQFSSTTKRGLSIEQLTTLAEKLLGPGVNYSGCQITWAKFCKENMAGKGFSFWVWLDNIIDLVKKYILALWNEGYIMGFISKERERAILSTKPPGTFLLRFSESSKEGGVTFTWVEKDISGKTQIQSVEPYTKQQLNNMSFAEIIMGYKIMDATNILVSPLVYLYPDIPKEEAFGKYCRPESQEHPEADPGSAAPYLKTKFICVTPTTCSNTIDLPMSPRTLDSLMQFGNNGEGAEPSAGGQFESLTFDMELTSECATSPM

[2] = tested on: DU-145; experiment: Cell cycle arrest in human DU145 cells assessed as accumulation at G0/G1 phase at 10 uM after 24 hrs by FACS analysis (reference value: 41.1%); type: functional
[3] = tested on: DU-145; experiment: Induction of apoptosis in human DU145 cells assessed as decrease in procaspase-3 level up to 10 uM by Western blot method; type: functional, cell-based
[4] = biological target: T1, PTPN9/STAT3 (Homo sapiens) (UniProt P40763+P43378); experiment: Modulation of MEG2 in human DU145 cells assessed as inhibition of STAT3 activation by measuring down regulation of Mcl1 level at 10 uM after 24 hrs by Western blot method; type: cell-based
T1 sequence (P40763 2-770 limits assumed): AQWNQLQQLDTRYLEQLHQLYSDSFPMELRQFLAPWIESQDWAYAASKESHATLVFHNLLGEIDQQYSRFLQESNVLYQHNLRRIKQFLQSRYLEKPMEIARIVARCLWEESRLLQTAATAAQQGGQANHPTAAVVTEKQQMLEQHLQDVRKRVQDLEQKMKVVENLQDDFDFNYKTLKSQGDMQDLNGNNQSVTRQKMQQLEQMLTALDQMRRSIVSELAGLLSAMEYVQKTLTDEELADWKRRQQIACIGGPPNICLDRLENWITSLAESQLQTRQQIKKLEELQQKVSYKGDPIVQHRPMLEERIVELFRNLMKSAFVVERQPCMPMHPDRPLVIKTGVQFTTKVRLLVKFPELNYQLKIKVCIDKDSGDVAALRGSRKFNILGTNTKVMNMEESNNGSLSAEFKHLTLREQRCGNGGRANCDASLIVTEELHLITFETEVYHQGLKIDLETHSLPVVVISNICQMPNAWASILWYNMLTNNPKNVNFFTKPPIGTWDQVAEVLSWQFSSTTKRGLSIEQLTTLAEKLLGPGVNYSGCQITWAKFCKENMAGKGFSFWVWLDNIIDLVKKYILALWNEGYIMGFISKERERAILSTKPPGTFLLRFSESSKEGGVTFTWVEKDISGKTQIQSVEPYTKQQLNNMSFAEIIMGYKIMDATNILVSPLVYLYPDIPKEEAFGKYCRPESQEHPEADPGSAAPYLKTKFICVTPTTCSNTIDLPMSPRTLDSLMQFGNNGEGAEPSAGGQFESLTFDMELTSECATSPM
T1 sequence (P43378 whole entry partner): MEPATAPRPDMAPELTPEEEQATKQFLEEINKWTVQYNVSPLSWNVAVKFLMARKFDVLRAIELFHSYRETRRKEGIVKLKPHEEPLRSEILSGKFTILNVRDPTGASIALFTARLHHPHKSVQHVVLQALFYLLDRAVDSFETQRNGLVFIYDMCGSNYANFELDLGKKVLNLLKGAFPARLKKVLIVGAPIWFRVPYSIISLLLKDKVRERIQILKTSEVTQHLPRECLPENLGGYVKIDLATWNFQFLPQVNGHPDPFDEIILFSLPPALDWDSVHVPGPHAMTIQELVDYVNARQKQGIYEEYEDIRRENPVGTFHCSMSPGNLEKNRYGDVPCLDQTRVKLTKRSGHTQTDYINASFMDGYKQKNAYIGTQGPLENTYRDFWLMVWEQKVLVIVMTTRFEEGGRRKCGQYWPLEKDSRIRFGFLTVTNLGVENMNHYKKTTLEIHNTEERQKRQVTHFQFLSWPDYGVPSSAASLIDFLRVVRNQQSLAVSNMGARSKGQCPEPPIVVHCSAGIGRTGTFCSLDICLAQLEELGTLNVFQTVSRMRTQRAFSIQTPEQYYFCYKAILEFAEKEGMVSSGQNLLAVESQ

[5] = tested on: DU-145; experiment: Antiproliferative activity against human DU145 cells after 48 hrs by WST1 assay; type: functional; details: DU-145, 48 h
[6] = tested on: DU-145; experiment: Cell cycle arrest in human DU145 cells assessed as accumulation at G2/M phase at 10 uM after 24 hrs by FACS analysis (reference value: 24%); type: functional
[7] = biological target: T1, PTPN9/STAT3 (Homo sapiens); experiment: Modulation of MEG2 in human DU145 cells assessed as inhibition of STAT3 activation by measuring down regulation of Cyclin D1 level at 10 uM after 24 hrs by Western blot method; type: cell-based
[8] = biological target: T1, PTPN9/STAT3 (Homo sapiens); experiment: Modulation of MEG2 in human LNCAP cells assessed as inhibition of IL-6-stimulated STAT3 phosphorylation at 10 uM pretreated for 12 hrs followed by IL-6 stimulation for 30 mins by Western blot method; type: cell-based
[9] = biological target: T1, PTPN9/STAT3 (Homo sapiens); experiment: Modulation of MEG2 in human DU145 cells assessed as inhibition of STAT3 phosphorylation at Tyr-705 residue at 20 uM after 24 hrs by Western blot method; type: cell-based
[10] = biological target: T1, PTPN9/STAT3 (Homo sapiens); experiment: Modulation of MEG2 in human DU145 cells assessed as inhibition of STAT3 activation by measuring down regulation of survivin level at 10 uM after 24 hrs by Western blot method; type: cell-based
[11] = tested on: DU-145; experiment: Cell cycle arrest in human DU145 cells assessed as accumulation at G0/G1 phase at 10 uM after 48 hrs by FACS analysis (reference value: 41.1%); type: functional
[12] = tested on: DU-145; experiment: Cell cycle arrest in human DU145 cells assessed as apoptotic cells at 10 uM after 24 hrs by FACS analysis (reference value: 8.1%); type: functional
[13] = biological target: Signal transducer and activator of transcription 3 (Homo sapiens) (UniProt P40763); experiment: Inhibition of STAT3 phosphorylation at Tyr-705 residue in human DU145 cells harboring MEG2 siRNA at 10 uM after 12 hrs by Western blot method; type: cell-based
[14] = biological target: T1, PTPN9/STAT3 (Homo sapiens); experiment: Modulation of MEG2 in human DU145 cells assessed as inhibition of STAT3 activation by measuring down regulation of Bcl2 level at 10 uM after 24 hrs by Western blot method; type: cell-based
[15] = biological target: T1, PTPN9/STAT3 (Homo sapiens); experiment: Modulation of MEG2 in human DU145 cells assessed as inhibition of STAT3 activation by measuring down regulation of Cyclin A level at 10 uM after 24 hrs by Western blot method; type: cell-based
[16] = biological target: T1, PTPN9/STAT3 (Homo sapiens); experiment: Modulation of MEG2 in human DU145 cells assessed as inhibition of STAT3 phosphorylation at Tyr-705 residue at 10 uM after 24 hrs in presence of phosphatase inhibitor Na3VO4 by Western blot method; type: cell-based
[17] = tested on: DU-145; experiment: Cell cycle arrest in human DU145 cells assessed as apoptotic cells at 10 uM after 48 hrs by FACS analysis (reference value: 8.1%); type: functional
[18] = tested on: DU-145; experiment: Cell cycle arrest in human DU145 cells assessed as accumulation at G2/M phase at 10 uM after 48 hrs by FACS analysis (reference value: 24%); type: functional
[19] = tested on: DU-145; experiment: Cell cycle arrest in human DU145 cells assessed as accumulation at S phase at 10 uM after 48 hrs by FACS analysis (reference value: 7.7%); type: functional
[20] = tested on: DU-145; experiment: Cell cycle arrest in human DU145 cells assessed as accumulation at G0/G1 phase at 10 uM after 12 hrs by FACS analysis (reference value: 41.1%); type: functional
[21] = tested on: LNCaP; experiment: Antiproliferative activity against human LNCAP cells by WST1 assay; type: functional, cell-based
[22] = biological target: Proto-oncogene tyrosine-protein kinase Src (Homo sapiens) (UniProt P12931); experiment: Inhibition of SRC phosphorylation (unknown origin)
Sequence of Proto-oncogene tyrosine-protein kinase Src (Homo sapiens) (P12931 2-536 limits assumed): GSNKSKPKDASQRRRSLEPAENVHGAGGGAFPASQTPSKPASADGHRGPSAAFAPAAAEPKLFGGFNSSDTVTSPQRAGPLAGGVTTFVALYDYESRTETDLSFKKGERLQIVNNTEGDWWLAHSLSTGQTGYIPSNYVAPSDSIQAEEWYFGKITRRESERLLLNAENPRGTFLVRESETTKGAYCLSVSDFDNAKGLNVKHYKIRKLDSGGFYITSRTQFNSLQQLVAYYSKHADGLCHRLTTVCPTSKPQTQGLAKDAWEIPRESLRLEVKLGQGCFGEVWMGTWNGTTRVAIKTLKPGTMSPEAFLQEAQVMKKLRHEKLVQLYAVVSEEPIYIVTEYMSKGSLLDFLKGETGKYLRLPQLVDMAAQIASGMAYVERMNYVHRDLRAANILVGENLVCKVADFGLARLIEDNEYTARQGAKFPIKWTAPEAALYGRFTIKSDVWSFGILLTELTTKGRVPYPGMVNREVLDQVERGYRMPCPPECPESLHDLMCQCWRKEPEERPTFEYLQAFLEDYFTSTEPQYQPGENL

[23] = tested on: DU-145; experiment: Cell cycle arrest in human DU145 cells assessed as accumulation at G2/M phase at 10 uM after 12 hrs by FACS analysis (reference value: 24%); type: functional
[24] = tested on: DU-145; experiment: Cell cycle arrest in human DU145 cells assessed as accumulation at S phase at 10 uM after 12 hrs by FACS analysis (reference value: 7.7%); type: functional
[25] = biological target: Protein farnesyltransferase (Homo sapiens, UniProt P49354+P49356); experiment: Inhibition of FPTase (unknown origin); type: protein-complex assay
[26] = tested on: DU-145; experiment: Cell cycle arrest in human DU145 cells assessed as accumulation at S phase at 10 uM after 24 hrs by FACS analysis (reference value: 7.7%); type: functional
[27] = biological target: T2, Signal transducer and activator of transcription 5A (Homo sapiens) (UniProt P42229); experiment: Inhibition of STAT5 phosphorylation in human DU145 cells after 24 hrs by Western blot method; type: cell-based
T2 sequence (whole entry): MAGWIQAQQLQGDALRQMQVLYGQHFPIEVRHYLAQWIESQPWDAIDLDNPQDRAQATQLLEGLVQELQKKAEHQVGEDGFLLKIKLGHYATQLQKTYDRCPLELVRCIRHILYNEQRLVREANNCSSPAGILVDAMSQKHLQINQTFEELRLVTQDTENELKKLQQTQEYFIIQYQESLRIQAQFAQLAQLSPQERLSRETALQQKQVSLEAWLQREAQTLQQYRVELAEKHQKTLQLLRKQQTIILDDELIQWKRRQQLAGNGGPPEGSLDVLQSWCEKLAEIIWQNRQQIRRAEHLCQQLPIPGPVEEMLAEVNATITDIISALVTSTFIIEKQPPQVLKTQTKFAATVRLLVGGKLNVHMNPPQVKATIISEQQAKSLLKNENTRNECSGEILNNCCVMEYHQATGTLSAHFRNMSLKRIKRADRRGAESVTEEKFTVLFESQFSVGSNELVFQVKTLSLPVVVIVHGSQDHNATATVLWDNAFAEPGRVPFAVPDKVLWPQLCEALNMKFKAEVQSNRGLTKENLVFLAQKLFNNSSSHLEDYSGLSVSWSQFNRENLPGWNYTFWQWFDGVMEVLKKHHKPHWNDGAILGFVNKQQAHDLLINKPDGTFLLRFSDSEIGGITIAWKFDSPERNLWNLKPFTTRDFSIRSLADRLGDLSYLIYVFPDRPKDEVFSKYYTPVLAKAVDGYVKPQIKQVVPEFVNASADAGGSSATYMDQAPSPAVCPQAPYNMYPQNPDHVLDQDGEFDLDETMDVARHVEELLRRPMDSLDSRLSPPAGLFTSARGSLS

[28] = tested on: PC-3; experiment: Antiproliferative activity against human PC3 cells by WST1 assay; type: functional, cell-based
[29] = tested on: DU-145; experiment: Increase in MEG2 protein expression in human DU145 cells at 10 uM by Western blot method; type: functional, cell-based; details: TDE = time-dependent effect
[30] = biological target: Janus Kinase (JAK) (Homo sapiens) (UniProt P52333+P23458+O60674+P29597); experiment: Inhibition of JAK phosphorylation (unknown origin); type: protein assay
[31] = biological target: T1, PTPN9/STAT3 (Homo sapiens); experiment: Modulation of MEG2 in human HCT116 cells harboring pSTAT3 (unknown origin)-TA-Luc assessed as inhibition of STAT3 transcriptional activity after 24 hrs by luciferase reporter gene assay; type: cell-based
[32] = biological target: T3, Signal transducer and activator of transcription 1-alpha/beta (Homo sapiens) (UniProt P42224); experiment: Inhibition of STAT1 phosphorylation in human DU145 cells after 24 hrs by Western blot method; type: cell-based
T3 sequence (whole entry): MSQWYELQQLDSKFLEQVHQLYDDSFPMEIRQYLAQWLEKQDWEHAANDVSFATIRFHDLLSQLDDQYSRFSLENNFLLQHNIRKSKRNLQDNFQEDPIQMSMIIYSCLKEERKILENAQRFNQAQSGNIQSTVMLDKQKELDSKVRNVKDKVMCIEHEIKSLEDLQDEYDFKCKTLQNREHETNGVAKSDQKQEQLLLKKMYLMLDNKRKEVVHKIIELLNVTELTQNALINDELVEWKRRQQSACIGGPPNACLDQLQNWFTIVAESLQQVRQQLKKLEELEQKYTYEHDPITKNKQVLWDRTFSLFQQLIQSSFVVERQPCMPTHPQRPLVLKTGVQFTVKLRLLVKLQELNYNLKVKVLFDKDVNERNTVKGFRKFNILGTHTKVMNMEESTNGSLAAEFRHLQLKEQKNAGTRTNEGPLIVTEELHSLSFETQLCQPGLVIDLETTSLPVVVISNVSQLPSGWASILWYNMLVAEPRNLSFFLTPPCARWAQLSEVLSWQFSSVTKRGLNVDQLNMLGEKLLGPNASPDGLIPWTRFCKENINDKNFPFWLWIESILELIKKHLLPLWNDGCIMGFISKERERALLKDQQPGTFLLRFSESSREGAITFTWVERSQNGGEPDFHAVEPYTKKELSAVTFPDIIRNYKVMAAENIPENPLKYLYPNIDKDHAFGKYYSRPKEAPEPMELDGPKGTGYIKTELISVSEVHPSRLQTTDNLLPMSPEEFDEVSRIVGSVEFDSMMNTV

[33] = tested on: DU-145; experiment: Effect on total STAT3 protein expression in human DU145 cells up to 20 uM after 24 hrs by Western blot method; type: ADME, cell-based; details: du-145, 24 h
[34] = tested on: DU-145; experiment: Increase in cleaved caspase-3 level in human DU145 cells up to 10 uM after 24 hrs by Western blot method; type: functional, cell-based
[35] = tested on: DU-145; experiment: Cell cycle arrest in human DU145 cells assessed as apoptotic cells at 10 uM after 12 hrs by FACS analysis (reference value: 8.1%); type: functional

inhibition [1]: Active
inhibition [4]: Active
GI50 [5]: 15 µM
inhibition [7]: Active
inhibition [8]: Active
inhibition [9]: > 90%
inhibition [13]: inactive
inhibition [14]: Active
inhibition [15]: Active
inhibition [16]: inactive
inhibition [22]: inactive
IC50 [25]: > 40 µM
inhibition [27]: inactive
inhibition [30]: inactive
inhibition [31]: Dose-dependent effect
inhibition [32]: inactive
Structure (SMILES): COC1=CC(=O)/C(=C(\C=C\c2ccccc2)OC)C1=O
Activity [2]: 50.3%
Activity [3]: Active
Activity [6]: 23.6%
inhibition [10]: Active
Activity [11]: 36.7%
Activity [12]: 8.5%
Activity [17]: 20.8%
Activity [18]: 31.6%
Activity [19]: 5.6%
Activity [20]: 43.5%
Activity [21]: inactive
Activity [23]: 34%
Activity [24]: 7.8%
Activity [26]: 4.1%
Activity [28]: inactive
Activity [29]: Tde
Activity [33]: Non-Toxic
Activity [34]: inactive
Activity [35]: 4.5%
